Data set [1] deals with Hypercholesterolemic rats. Briefly: Cholesterol lowering in hypercholesterolemic rats. The class given is in vivo, rat. Particulars: for change in vivo at 0.2 mg/kg/day / change in vivo at 0.5 mg/kg/day: Rattus norvegicus, percentage change from pre-dose cholesterol; for cholesterol lowering: 0.5 mg/kg/d orally; for change in vivo at 0.5 mg/kg/day: delivered p.o. (0.5 mg/kg/d).

The test system of data set [2] is normal rats maintained on a cholesterol-containing diet. The data set can be described thus: Continuous infusion study in rats on a cholesterol-containing diet. Particulars: continuous infusion 1 mg/kg/day; for cardiovascular parameters (heart rate, LV dP/dt, blood pressure): day 7 or day 14.
Procedure: Screening for thyromimetic activity was performed in normal rats maintained on a cholesterol-containing diet.
Data set [3] relates to cholesterol-fed rat. The data set can be described thus: Subacute study in cholesterol-fed rats, IP once-a-day for seven days: serum cholesterol, heart weight, heart mGPDH. Conditions: cholesterol-fed rats, IP 7 days; Compound 17 at 0.1-1 mg/kg/day.
Procedure: The cholesterol-fed rat is an animal model of hypercholesterolemia generated by feeding the animals a diet with high cholesterol content.
Methods: Rats were maintained on a diet containing 1.5% cholesterol and 0.5% cholic acid for 2 weeks prior to initiation of treatment. Serum cholesterol values were assessed and the animals randomized into groups for treatment.

The structures appear in SMILES notation.

Regarding `CC(C)c1cc(Cc2c(Cl)cc(OCP(=O)(O)O)cc2Cl)ccc1O` [Compound 7-5, [3,5-dichloro-4-(4′-hydroxy-3′-iso-propylbenzyl)phenoxy] methylphosphonic acid], the change in vivo at 0.2 mg/kg/day in data set [1] (ip, delivered i.p (0.2 mg/kg/d)) is -63.3%; in data set [1] (po, delivered p.o. (0.2 mg/kg/d)), -38%.

As for `CC(C)c1cc(Oc2c(Br)cc(CP(=O)(OCOC(=O)C(C)(C)C)OCOC(=O)C(C)(C)C)cc2Br)ccc1O` [Compound 12-5, Di-(pivaloyloxymethyl)[3,5-dibromo-4-(4′-hydroxy-3′-iso-propylphenoxy)benzyl] phosphonate], the cholesterol lowering entry in data set [1] is listed as “significant lowering of cholesterol”.

As for `CC(C)c1cc(Oc2c(I)cc(OCP(=O)(OCOC(=O)C(C)(C)C)OCOC(=O)C(C)(C)C)cc2I)ccc1O` [Compound 12-7, Di(pivaloyloxymethyl)[3,5-diiodo-4-(4′-hydroxy-3′-iso-propylphenoxy)phenoxy]methylphosphonate], in data set [1] (po), the change in vivo at 0.5 mg/kg/day was -39.1%.

Turning to `CC(C)c1cc(Cc2c(Cl)cc(OC[P@@]3(=O)OCC[C@@H](c4cccc(Cl)c4)O3)cc2Cl)ccc1O` [Compound 13-11, Cis (S)-2-[(3,5-dichloro-4-(4′-hydroxy-3′-iso-propylbenzyl)phenoxy)methyl]-4-(3-chlorophenyl)-2-oxo-2λ^5-[1,3,2]-dioxaphosphonane], the change in vivo at 0.5 mg/kg/day in data set [1] (po) is -24.8%.

Turning to `CCOC(=O)[C@H](C)NP(=O)(Cc1cc(Br)c(Oc2ccc(O)c(C(C)C)c2)c(Br)c1)N[C@@H](C)C(=O)OCC` [Compound 15-5, di-N-(L-1-ethoxycarbonylethylamino)[3,5-dibromo-4-(4′-hydroxy-3′-iso-propylphenoxy)benzyl]phosphonamide], the cholesterol lowering result in data set [1] is listed as “significant lowering of cholesterol”.

As to `CCOC(=O)[C@H](C)NP(=O)(COc1cc(Cl)c(Cc2ccc(O)c(C(C)C)c2)c(Cl)c1)N[C@@H](C)C(=O)OCC` [Compound 15-7], in data set [1] (po), the change in vivo at 0.5 mg/kg/day is -29.1%.

On to `Cc1cc(OCC(=O)O)cc(C)c1Cc1ccc(O)c(C(C)C)c1` [Compound 17, [3,5-dimethyl-4-(4′-hydroxy-3′-iso-propylbenzyl)-phenoxy]acetic acid, reference compound], for which, in data set [2], the “total cholesterol at day 7” value is on record as “significant decrease in cholesterol” and the “total cholesterol at day 14” value is listed as “no significant decrease in cholesterol was observed”. For the same compound, the cardiac hypertrophy entry in data set [3] is recorded as “Undesirable cardiac hypertrophy was observed”.

Turning to `COP(=O)(O)COc1cc(C)c(Cc2ccc(O)c(C(C)C)c2)c(C)c1` [Compound 69, [3,5-dimethyl-4-(4′-hydroxy-3′-iso-propylbenzyl)phenoxy]-methylphosphonic acid monomethyl ester], in data set [2], the “total cholesterol at day 7” value was “cholesterol lowering effects”; the “total cholesterol at day 14” value is on record as “cholesterol lowering effects”; the “cardiovascular parameters (heart rate, LV dP/dt, blood pressure)” value (shortened to “cardiovascular parameters”) was “no changes in any of the cardiovascular parameters”.

For the compound `CCOP(=O)(O)COc1cc(C)c(Cc2ccc(O)c(C(C)C)c2)c(C)c1` [Compound 69-1, [3,5-dimethyl-4-(4′-hydroxy-3′-iso-propylbenzyl)phenoxy]methylphosphonic acid monoethyl ester], in data set [2], the “total cholesterol at day 7” value is listed as “cholesterol lowering effects”; the “total cholesterol at day 14” value was “cholesterol lowering effects”; the “cardiovascular parameters” value was “no changes in any of the cardiovascular parameters”.

`Cc1cc(OCP(C)(=O)O)cc(C)c1Cc1ccc(O)c(C(C)C)c1` [Compound 70, [3,5-dimethyl-4-(4′-hydroxy-3′-iso-propylbenzyl)-phenoxymethyl]methylphosphinic acid]: in data set [2], the “total cholesterol at day 7” value is “cholesterol lowering effects”; the “total cholesterol at day 14” value was “cholesterol lowering effects”; the “cardiovascular parameters” value was “no changes in any of the cardiovascular parameters”.

These data come from patent publication US7514419B2, “Phosphorus-containing thyromimetics” (Metabasis Therapeutics, Inc., priority 2003, dated 2009).
